Patent publication US20220000911A1, “COMBINATION OF GOLD COMPLEXES WITH OLAPARIB OR OTHER PARP1/2 INHIBITORS FOR USE IN THE TREATMENT OF CANCER RESISTANT TO SAID PARP1/2 INHIBITORS” (Varsity Pharmaceuticals Limited, priority 2020, published 2022)

What was measured:
[1] = tested on: wildtype A2780 ovarian cancer cells; test: CellTiter Glo proliferation inhibition, wild-type A2780 cells; format: cell-based; conditions: for IC50 / inhibition at 60 pM / inhibition at 0.00017 µM / inhibition at 0.00051 µM / inhibition at 0.00152 µM / inhibition at 0.00457 µM / inhibition at 0.01372 µM / inhibition at 0.04115 µM / inhibition at 0.12346 µM / inhibition at 0.37037 µM / inhibition at 10 µM / inhibition at 30 µM: Homo sapiens; for IC50: A2780; for inhibition at 60 pM / inhibition at 0.00017 µM / inhibition at 0.00051 µM / inhibition at 0.00152 µM / inhibition at 0.00457 µM / inhibition at 0.01372 µM / inhibition at 0.04115 µM / inhibition at 0.12346 µM / inhibition at 0.37037 µM / inhibition at 10 µM / inhibition at 30 µM / Mean Inhibition (n = 3): wildtype A2780; for inhibition at 60 pM: test conc. 0.06 nM; for inhibition at 60 pM / inhibition at 0.00017 µM / inhibition at 0.00051 µM / inhibition at 0.00152 µM / inhibition at 0.00457 µM / inhibition at 0.01372 µM / inhibition at 0.04115 µM / inhibition at 0.12346 µM / inhibition at 0.37037 µM / inhibition at 10 µM / inhibition at 30 µM: read-out: Mean Inhibition (n = 3); for inhibition at 0.00017 µM: test conc. 0.17 nM; for inhibition at 0.00051 µM: test conc. 0.51 nM; for inhibition at 0.00152 µM: test conc. 1.52 nM; for inhibition at 0.00457 µM: test conc. 4.57 nM; for inhibition at 0.01372 µM: test conc. 13.72 nM; for inhibition at 0.04115 µM: test conc. 41.15 nM; for inhibition at 0.12346 µM: test conc. 123.46 nM; for inhibition at 0.37037 µM: test conc. 370.37 nM; for inhibition at 10 µM: test conc. 10,000 nM; for inhibition at 30 µM: test conc. 30,000 nM; for Maximum inhibition observed in wild-type A2780 cells: concentration range 0.06 nM to 30,000 nM
Experimental: The A2780 cell line is an ovarian cancer cell line that was established from an ovarian endometroid adenocarcinoma tumour. […] It is commonly used as a model to observe the effects of, and test the potency of various chemicals, methods of delivery and treatments for ovarian cancer. […] The cells were diluted with culture medium and 40 μL of cell suspension (1000 cells/well) was added into each well of a 384-well cell culture plate. The plate was covered with a lid and left at room temperature without shaking for 30 minutes. The plate was then transferred to an incubator at 37° C. and 5% CO2 and left overnight. Test compounds were dissolved at a concentration of 30 mM in DMSO to create a stock solution. 45 μL of the stock solution was transferred to a 384 pp-plate. […] The plate was then spun at room temperature at 1,000 RPM for 1 minute. 40 nL of the diluted compound was then transferred from the compound source plate into the cell plate. The cell plate was then covered with a lid and placed in an incubator at 37° C. and 5% CO2 and left for 120 hours. 72 hours after treatment with the compound detection was conducted as discussed below. CellTiter Glo® reagents were thawed and equilibrated to room temperature. The cell plate was then removed from the incubator and equilibrated at room temperature for 15 minutes. 30 μL of the CellTiter Glo® reagents were then added into each well (at 1:1 to culture medium). The contents was mixed for 2 minutes on an orbital shaker to induce cell lysis and then the plates were allowed to incubate at room temperature for 30 minutes. Luminescence was then measured on an Envision reader (Perkin Elmer). The inhibition activity was calculated using the following formula: […]

[2] = tested on: olaparib resistant A2780 ovarian cancer cells; test: CellTiter Glo proliferation inhibition, olaparib resistant A2780 cells, single agents; format: cell-based; conditions: for IC50 / inhibition at 60 pM / inhibition at 0.00017 µM / inhibition at 0.00051 µM / inhibition at 0.00152 µM / inhibition at 0.00457 µM / inhibition at 0.01372 µM / inhibition at 0.04115 µM / inhibition at 0.12346 µM / inhibition at 0.37037 µM / inhibition at 10 µM / inhibition at 30 µM: Homo sapiens; for IC50: A2780; for inhibition at 60 pM / inhibition at 0.00017 µM / inhibition at 0.00051 µM / inhibition at 0.00152 µM / inhibition at 0.00457 µM / inhibition at 0.01372 µM / inhibition at 0.04115 µM / inhibition at 0.12346 µM / inhibition at 0.37037 µM / inhibition at 10 µM / inhibition at 30 µM / Mean Inhibition (n = 3): olaparib resistant A2780; for inhibition at 60 pM: test conc. 0.06 nM; for inhibition at 60 pM / inhibition at 0.00017 µM / inhibition at 0.00051 µM / inhibition at 0.00152 µM / inhibition at 0.00457 µM / inhibition at 0.01372 µM / inhibition at 0.04115 µM / inhibition at 0.12346 µM / inhibition at 0.37037 µM / inhibition at 10 µM / inhibition at 30 µM: read-out: Mean Inhibition (n = 3); for inhibition at 0.00017 µM: test conc. 0.17 nM; for inhibition at 0.00051 µM: test conc. 0.51 nM; for inhibition at 0.00152 µM: test conc. 1.52 nM; for inhibition at 0.00457 µM: test conc. 4.57 nM; for inhibition at 0.01372 µM: test conc. 13.72 nM; for inhibition at 0.04115 µM: test conc. 41.15 nM; for inhibition at 0.12346 µM: test conc. 123.46 nM; for inhibition at 0.37037 µM: test conc. 370.37 nM; for inhibition at 10 µM: test conc. 10,000 nM; for inhibition at 30 µM: test conc. 30,000 nM; for Maximum inhibition observed in olaparib resistant A2780 cells: concentration range 0.06 nM to 30,000 nM; for Resistance of the olaparib resistant cells to other PARPis: olaparib resistant A2780 cells
Experimental: A2780 ovarian cancer cells (wild-type “WT”) were cultured in RPMI 1640 Medium with 10% Fetal Bovine Serum (FBS).
To obtain cells resistant to olaparib, the cells were cultured in cell culture medium (RPMI 1640 Medium with 10% FBS) supplemented with 20 μM olaparib for one month in order to generate A2780 cells resistant to olaparib (“R”). After a month the cells were continuously cultured in the cell culture medium (RPMI 1640 Medium with 10% FBS) supplemented with 10 μM olaparib prior to use and for up to two months to maintain the resistance.
The cells were harvested from a flask into cell culture medium (RPMI 1640 Medium with 10% FBS) and then counted. The cells were diluted with culture medium and 40 μL of cell suspension (1000 cells/well) was added into each well of a 384-well cell culture plate. The plate was covered with a lid and left at room temperature without shaking for 30 minutes. The plate was then transferred to an incubator at 37° C. and 5% CO2 and left overnight.
Test compounds were dissolved at a concentration of 30 mM in DMSO to create a stock solution. 45 μL of the stock solution was transferred to a 384 pp-plate. […] The plate was then spun at room temperature at 1,000 RPM for 1 minute. 40 nL of the diluted compound was then transferred from the compound source plate into the cell plate. The cell plate was then covered with a lid and placed in an incubator at 37° C. and 5% CO2 and left for 120 hours. 72 hours after treatment with the compound detection was conducted as discussed below.
CellTiter Glo® reagents were thawed and equilibrated to room temperature. The cell plate was then removed from the incubator and equilibrated at room temperature for 15 minutes. 30 μL of the CellTiter Glo® reagents were then added into each well (at 1:1 to culture medium). The contents was mixed for 2 minutes on an orbital shaker to induce cell lysis and then the plates were allowed to incubate at room temperature for 30 minutes. Luminescence was then measured on an Envision reader (Perkin Elmer).
The inhibition activity was calculated using the following formula:
Inhibition (%)=100×(Lumvehicle−Lumsample)/(Lumvehicle−Lumblank),
where Lumvehicle is the luminescence of cells treated with 0.1% DMSO and Lumblank is cells in the culture medium.
The IC50 was calculated by fitting the curve using Xlfit (v5.3.1.3), equation 201: […]

| Compound | IC50 [1] [µM] | inhibition at 60 pM [1] [%] | inhibition at 0.00017 µM [1] [%] | inhibition at 0.00051 µM [1] [%] | inhibition at 0.00152 µM [1] [%] | inhibition at 0.00457 µM [1] [%] | inhibition at 0.01372 µM [1] [%] | inhibition at 0.04115 µM [1] [%] | inhibition at 0.12346 µM [1] [%] | inhibition at 0.37037 µM [1] [%] | inhibition at 10 µM [1] [%] | inhibition at 30 µM [1] [%] | Maximum inhibition observed in wild-type A2780 cells [1] [%] | Mean Inhibition (n = 3) ([1]; test conc. 1,111.11 nM) [%] | Mean Inhibition (n = 3) ([1]; test conc. 3,333.33 nM) [%] | IC50 [2] [µM] | inhibition at 60 pM [2] [%] | inhibition at 0.00017 µM [2] [%] | inhibition at 0.00051 µM [2] [%] | inhibition at 0.00152 µM [2] [%] | other results |
| --- | --- | --- | --- | --- | --- | --- | --- | --- | --- | --- | --- | --- | --- | --- | --- | --- | --- | --- | --- | --- | --- |
| Cn1ncnc1[C@H]1c2n[nH]c(=O)c3cc(F)cc(c23)N[C@@H]1c1ccc(F)cc1 [Talazoparib, talazoparib] | 0.019 | 0.69 | -0.65 | 2.86 | 6.64 | 23.4 | 35.8 | 46.3 | 56.3 | 64.5 | 77.6 | 78.9 | 80 | 71.38 | 76.54 | 4.31 | 5.28 | -0.08 | 6.18 | 2.33 | inhibition at 0.00457 µM [2]: 3.63%; inhibition at 0.01372 µM [2]: 4.9%; inhibition at 0.04115 µM [2]: -1.18%; inhibition at 0.12346 µM [2]: 2.95%; inhibition at 0.37037 µM [2]: 9.21%; inhibition at 10 µM [2]: 49%; inhibition at 30 µM [2]: 64.3%; Maximum inhibition observed in olaparib resistant A2780 cells [2]: 66%; Mean Inhibition (n = 3) ([2]; test conc. 1,111.11 nM): 15.45%; Mean Inhibition (n = 3) ([2]; test conc. 3,333.33 nM): 34.89%; Resistance of the olaparib resistant cells to other PARPis [2]: resistant |
| NC(=O)c1cccc2cn(-c3ccc([C@@H]4CCCNC4)cc3)nc12 [Niraparib, niraparib] | 2.09 | 0.39 | -3.72 | -0.34 | 0.03 | 0.18 | 0.97 | -0.46 | 3.18 | 12.3 | 66.2 | 73.3 | 75 | 25.03 | 48.63 | 17.3 | -1.98 | 0.32 | -2.36 | 2.95 | inhibition at 0.00457 µM [2]: -0.19%; inhibition at 0.01372 µM [2]: -1.43%; inhibition at 0.04115 µM [2]: 0.1%; inhibition at 0.12346 µM [2]: -0.8%; inhibition at 0.37037 µM [2]: -0.56%; inhibition at 10 µM [2]: 18.9%; inhibition at 30 µM [2]: 43.9%; Maximum inhibition observed in olaparib resistant A2780 cells [2]: 47%; Mean Inhibition (n = 3) ([2]; test conc. 1,111.11 nM): −1.37%; Mean Inhibition (n = 3) ([2]; test conc. 3,333.33 nM): 5.54%; Resistance of the olaparib resistant cells to other PARPis [2]: resistant |
